These results are taken from patent US20180022780A1, “STABILIZATION ADRENOMEDULLIN DERIVATIVES AND USE THEREOF” (priority 2014, published 2018).

Numbered stars: 1 amine (or outer) side, 2 acyl side, 3 side chain; on linkers, the order of the positions; unused ones are H or OH. Bridge positions count the residues as written; N and C are the ends. Square brackets hold non-standard residues; d marks the D form. Peptide text beside a SMILES is read from it. * marks the point of attachment. Abu(4-yl) = O=C([C@H](CC[*:3])N[*:1])[*:2]; Palmitoyl = CCCCCCCCCCCCCCCC(=O)*; Orn = NCCC[C@H](N)C(=O)O; Dap = NC[C@H](N)C(=O)O

T1 sequence (Q16602 23-461): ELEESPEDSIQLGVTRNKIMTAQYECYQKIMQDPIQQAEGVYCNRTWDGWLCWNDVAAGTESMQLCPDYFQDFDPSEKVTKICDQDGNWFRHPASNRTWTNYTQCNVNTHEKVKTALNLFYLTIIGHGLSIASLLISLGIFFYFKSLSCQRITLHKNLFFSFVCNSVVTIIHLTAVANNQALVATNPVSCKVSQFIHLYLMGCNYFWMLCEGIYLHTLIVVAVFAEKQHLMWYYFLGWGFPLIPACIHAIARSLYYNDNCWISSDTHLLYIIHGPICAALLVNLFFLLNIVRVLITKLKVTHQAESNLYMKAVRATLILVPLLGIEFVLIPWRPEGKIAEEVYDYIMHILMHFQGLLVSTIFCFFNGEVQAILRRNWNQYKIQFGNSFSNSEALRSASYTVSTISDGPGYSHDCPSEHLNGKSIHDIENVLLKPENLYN
T1 sequence (O60895 43-175): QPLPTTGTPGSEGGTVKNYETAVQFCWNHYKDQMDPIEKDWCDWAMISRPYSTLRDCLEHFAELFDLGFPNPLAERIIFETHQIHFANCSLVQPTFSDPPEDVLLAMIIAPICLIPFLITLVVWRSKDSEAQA

The experiment addresses T1, CLR fused to EYFP and RAMP2 fused to ECFP (Homo sapiens, UniProt O60895+Q16602).
T1 construct: EYFP; ECFP; expressed in transfected cells; host or cells: HEK-293 cells, transient co-transfection
The experiment can be described thus: cAMP assay (CRE luciferase reporter, HEK-293 cells transiently co-transfected with CLR and RAMP2). It is filed as cell-based. Conditions: Table 2, cAMP assay; HEK-293, CLR/RAMP2, CRE luciferase, 3 h stimulation, normalized to [G^14]ADM(14-52). Here is the method: HEK-293 cells (human embryonic kidney cells) were cultured in Ham's F-12/DMEM (1/1; v/v) containing 15% FCS under humidified atmosphere at 37° C. and 5% CO2 in 75 cm^2 cell culture flasks.
Cells were cultured in 75 cm^2 flasks to 70-80% confluency. 45 μl Metafectene® Pro was diluted in 900 μl Ham's F-12/DMEM (1/1; v/v) and incubated for 20 min at room temperature. 9000 ng plasmid containing DNA of CLR fused to EYFP and 3000 ng plasmid containing DNA of RAMP2 fused to ECFP were dissolved in 900 μl Ham's F-12/DMEM (1/1; v/v). The plasmid solution was mixed with the Metafectene® Pro solution and incubated for 25 min at room temperature. Medium was removed from the cells and replaced by 6 ml Ham's F-12/DMEM (1/1; v/v) containing 15% FCS. After addition of transfection solution the cells were incubated for 3 h under humidified atmosphere at 37° C. and 5% CO2.
For the second transfection 45 μl Metafectene® Pro was diluted in 900 μl Ham's F-12/DMEM (1/1; v/v) and incubated for 20 min at room temperature. 12000 ng of pGL4.29[luc2P/CRE/Hygro] plasmid containing DNA for the luciferase reporter gene luc2P (with CRE promotor region) were dissolved in 900 μl Ham's F-12/DMEM (1/1; v/v). The plasmid solution was mixed with the Metafectene® Pro solution and incubated for 25 min at room temperature. Medium was removed from the cells and replaced by 6 ml Ham's F-12/DMEM (1/1; v/v) containing 15% FCS. After addition of transfection solution the cells were incubated under humidified atmosphere at 37° C. and 5% CO2 over night.
For the coating of 96-well-plates 50 μl of a Poly-D-Lysine solution (1 ml stock solution of Poly-D-Lysin-hydrobromid/10 ml DPBS) were pipetted in each well and incubated for 40 min. After removal of the Poly-D-Lysine each well was washed with 50 μl DPBS. Transiently transfected cells were detached from the cell culture flask by removal of the medium, twofold washing with 5 m1 DPBS and resuspending in 13 ml Ham's F-12/DMEM (1/1; v/v) containing 15% FCS. 90000 to 120000 cells in 150 μl Ham's F-12/DMEM (1/1; v/v) containing 15% FCS were seeded per well and the plates were incubated under humidified atmosphere at 37° C. and 5% CO2 over night.
For each ligand a serial dilution giving eight different concentrations was prepared using Ham's F-12/DMEM (1/1; v/v). Before stimulation the medium on the cells was replaced by 100 μl Ham's F-12/DMEM (1/1; v/v) and the plates were incubated for 1 h under humidified atmosphere at 37° C. and 5% CO2. For stimulation the medium was removed again and the cells were incubated for 3 h in 80 μl of ligand-solution under humidified atmosphere at 37° C. and 5% CO2. In addition 80 μl of a 5 μM forskolin solution (in Ham's F-12/DMEM (1/1; v/v)) was used as a positive control and 80 μl of Ham's F-12/DMEM (1/1; v/v) as a negative control. Each concentration and the controls were tested as triplicates.
After 3 h of stimulation, the solutions were removed and the cells were washed with 50 μl of Ham's F-12/DMEM (1/1; v/v) per well. After 10 min incubation in 30 μl of Ham's F-12/DMEM (1/1; v/v) at room temperature, 30 μl of luciferase-solution (ONE-Glo™ Luciferase Assay System) was added and the luminescence was directly measured using an Infinite M200 (Tecan).
Data analysis of the luminescence measurement was carried out with GraphPad Prism 5. Therefore the measured luminescence values of each plate were first corrected on the base of the respective average of forskolin stimulation. Afterwards they were normalized to [G^14]ADM(14-52) which was used as standard peptide in every assay. After correction and normalization data was analysed using non-linear regression giving dose-response curves for each tested ligand.
`CC[C@H](C)[C@H](NC(=O)[C@H](CCC(N)=O)NC(=O)[C@H](Cc1c[nH]cn1)NC(=O)[C@H](C)NC(=O)[C@H](CC(C)C)NC(=O)[C@H](CCCCN)NC(=O)[C@H](CCC(N)=O)NC(=O)[C@@H](NC(=O)[C@@H](NC(=O)[C@@H]1CCSC[C@H](NC(=O)CNC(=O)CN)C(=O)N[C@@H](CCCNC(=N)N)C(=O)N[C@@H](Cc2ccccc2)C(=O)NCC(=O)N[C@@H]([C@@H](C)O)C(=O)N1)[C@@H](C)O)C(C)C)C(=O)N[C@@H](Cc1ccc(O)cc1)C(=O)N[C@@H](CCC(N)=O)C(=O)N[C@@H](Cc1ccccc1)C(=O)N[C@H](C(=O)N[C@@H](CC(=O)O)C(=O)N[C@@H](CCCCN)C(=O)N[C@@H](CC(=O)O)C(=O)N[C@@H](CCCCN)C(=O)N[C@@H](CC(=O)O)C(=O)N[C@@H](CC(N)=O)C(=O)N[C@H](C(=O)N[C@@H](C)C(=O)N1CCC[C@H]1C(=O)N[C@@H](CCCNC(=N)N)C(=O)N[C@@H](CO)C(=O)N[C@@H](CCCCN)C(=O)N[C@H](C(=O)N[C@@H](CO)C(=O)N1CCC[C@H]1C(=O)N[C@@H](CCC(N)=O)C(=O)NCC(=O)N[C@@H](Cc1ccc(O)cc1)C(N)=O)[C@@H](C)CC)C(C)C)[C@@H](C)O` [Example 15, ((4S,7S,13S,16S,19R)-19-(2-(2-aminoacetamido)acetamido)-13-benzyl-16-(3-guanidinopropyl)-7-((R)-1-hydroxyethyl)-6,9,12,15,18-pentaoxo-1-thia-5,8,11,14,17-pentaazacycloicosane-4-carbonyl)-L-threonyl-ADM(22-52)] (H-GGCRFGT[Abu(4-yl)]TVQKLAHQIYQFTDKDKDNVAPRSKISPQGY-NH2; thioether 3-8): the EC50 (in general, the midpoint of the concentration-response curve) is 3.3 nM.

In turn, `CC[C@H](C)[C@H](NC(=O)[C@H](CCC(N)=O)NC(=O)[C@H](Cc1c[nH]cn1)NC(=O)[C@H](C)NC(=O)[C@H](CC(C)C)NC(=O)[C@H](CCCCN)NC(=O)[C@H](CCC(N)=O)NC(=O)[C@@H](NC(=O)[C@@H](NC(=O)[C@@H]1CSCC[C@H](NC(=O)CNC(=O)CN)C(=O)N[C@@H](CCCNC(=N)N)C(=O)N[C@@H](Cc2ccccc2)C(=O)NCC(=O)N[C@@H]([C@@H](C)O)C(=O)N1)[C@@H](C)O)C(C)C)C(=O)N[C@@H](Cc1ccc(O)cc1)C(=O)N[C@@H](CCC(N)=O)C(=O)N[C@@H](Cc1ccccc1)C(=O)N[C@H](C(=O)N[C@@H](CC(=O)O)C(=O)N[C@@H](CCCCN)C(=O)N[C@@H](CC(=O)O)C(=O)N[C@@H](CCCCN)C(=O)N[C@@H](CC(=O)O)C(=O)N[C@@H](CC(N)=O)C(=O)N[C@H](C(=O)N[C@@H](C)C(=O)N1CCC[C@H]1C(=O)N[C@@H](CCCNC(=N)N)C(=O)N[C@@H](CO)C(=O)N[C@@H](CCCCN)C(=O)N[C@H](C(=O)N[C@@H](CO)C(=O)N1CCC[C@H]1C(=O)N[C@@H](CCC(N)=O)C(=O)NCC(=O)N[C@@H](Cc1ccc(O)cc1)C(N)=O)[C@@H](C)CC)C(C)C)[C@@H](C)O` [Example 16, ((3R,6S,12S,15S,18S)-18-(2-(2-aminoacetamido)acetamido)-12-benzyl-15-(3-guanidinopropyl)-6-((R)-1-hydroxyethyl)-5,8,11,14,17-pentaoxo-1-thia-4,7,10,13,16-pentaazacycloicosane-3-carbonyl)-L-threonyl-ADM(22-52)] (H-GG[Abu(4-yl)]RFGTCTVQKLAHQIYQFTDKDKDNVAPRSKISPQGY-NH2; thioether 3-8) registered an EC50 of 6.8 nM.

In turn, `CCCCCCCCCCCCCCCC(=O)NCCCC[C@H](N)C(=O)NCC(=O)N[C@H]1CNC(=O)CC[C@@H](C(=O)N[C@H](C(=O)N[C@H](C(=O)N[C@@H](CCC(N)=O)C(=O)N[C@@H](CCCCN)C(=O)N[C@@H](CC(C)C)C(=O)N[C@@H](C)C(=O)N[C@@H](Cc2c[nH]cn2)C(=O)N[C@@H](CCC(N)=O)C(=O)N[C@H](C(=O)N[C@@H](Cc2ccc(O)cc2)C(=O)N[C@@H](CCC(N)=O)C(=O)N[C@@H](Cc2ccccc2)C(=O)N[C@H](C(=O)N[C@@H](CC(=O)O)C(=O)N[C@@H](CCCCN)C(=O)N[C@@H](CC(=O)O)C(=O)N[C@@H](CCCCN)C(=O)N[C@@H](CC(=O)O)C(=O)N[C@@H](CC(N)=O)C(=O)N[C@H](C(=O)N[C@@H](C)C(=O)N2CCC[C@H]2C(=O)N[C@@H](CCCNC(=N)N)C(=O)N[C@@H](CO)C(=O)N[C@@H](CCCCN)C(=O)N[C@H](C(=O)N[C@@H](CO)C(=O)N2CCC[C@H]2C(=O)N[C@@H](CCC(N)=O)C(=O)NCC(=O)N[C@@H](Cc2ccc(O)cc2)C(N)=O)[C@@H](C)CC)C(C)C)[C@@H](C)O)[C@@H](C)CC)C(C)C)[C@@H](C)O)NC(=O)[C@H]([C@@H](C)O)NC(=O)CNC(=O)[C@H](Cc2ccccc2)NC(=O)[C@H](CCCNC(=N)N)NC1=O` [Example 18, ((3S,9S,12S,15S,21S)-15-(2-((S)-2-amino-6-palmitamidohexanamido)acetamido)-9-benzyl-12-(3-guanidinopropyl)-3-((R)-1-hydroxyethyl)-2,5,8,11,14,18-hexaoxo-1,4,7,10,13,17-hexaazacyclohenicosane-21-carbonyl)-L-threonyl-ADM(22-52)] (H-K(Palmitoyl)G[Dap]RFGTETVQKLAHQIYQFTDKDKDNVAPRSKISPQGY-NH2; lactam 3-8) displayed an EC50 of 2 nM. Compared with the last compound, the EC50 is about 3.4-fold lower.

Compound `CC[C@H](C)[C@H](NC(=O)[C@H](CCC(N)=O)NC(=O)[C@H](Cc1c[nH]cn1)NC(=O)[C@H](C)NC(=O)[C@H](CC(C)C)NC(=O)[C@H](CCCCN)NC(=O)[C@H](CCC(N)=O)NC(=O)[C@@H](NC(=O)[C@@H](NC(=O)[C@@H]1CCC(=O)NCCC[C@H](NC(=O)CNC(=O)CN)C(=O)N[C@@H](CCCNC(=N)N)C(=O)N[C@@H](Cc2ccccc2)C(=O)NCC(=O)N[C@@H]([C@@H](C)O)C(=O)N1)[C@@H](C)O)C(C)C)C(=O)N[C@@H](Cc1ccc(O)cc1)C(=O)N[C@@H](CCC(N)=O)C(=O)N[C@@H](Cc1ccccc1)C(=O)N[C@H](C(=O)N[C@@H](CC(=O)O)C(=O)N[C@@H](CCCCN)C(=O)N[C@@H](CC(=O)O)C(=O)N[C@@H](CCCCN)C(=O)N[C@@H](CC(=O)O)C(=O)N[C@@H](CC(N)=O)C(=O)N[C@H](C(=O)N[C@@H](C)C(=O)N1CCC[C@H]1C(=O)N[C@@H](CCCNC(=N)N)C(=O)N[C@@H](CO)C(=O)N[C@@H](CCCCN)C(=O)N[C@H](C(=O)N[C@@H](CO)C(=O)N1CCC[C@H]1C(=O)N[C@@H](CCC(N)=O)C(=O)NCC(=O)N[C@@H](Cc1ccc(O)cc1)C(N)=O)[C@@H](C)CC)C(C)C)[C@@H](C)O` [Example 20, ((2S,5S,11S,14S,22S)-22-(2-(2-aminoacetamido)acetamido)-5-benzyl-2-(3-guanidinopropyl)-11-((R)-1-hydroxyethyl)-3,6,9,12,17,23-hexaoxo-1,4,7,10,13,18-hexaazacyclotricosane-14-carbonyl)-L-threonyl-ADM(22-52)] (H-GG[Orn]RFGTETVQKLAHQIYQFTDKDKDNVAPRSKISPQGY-NH2; lactam 3-8) gave an EC50 of 9.1 nM.
